Structures can show the parent of a compound that is named as a salt.

Data set [1] concerns metallothionein-II mRNA in Saos-2 cells. The data set is described as follows: Regulation of metallothionein-II mRNA in Saos-2 cells. The class given is cell-based. Conditions: Homo sapiens.

Regarding `C=Cc1cc(O)cc2cc(-c3ccc(O)cc3)oc12` [Example 67, 2-(4-Hydroxy-phenyl)-7-vinyl-benzofuran-5-ol], the melting point (in general, the temperature, or range, at which the solid turns liquid) lay within 182 to 184 °C.
Take `Oc1ccc(-c2cc3cc(O)ccc3o2)c(-c2ccccc2)c1` [Example 103, 2-(5-Hydroxy-biphenyl-2-yl)-benzofuran-5-ol]: the fold induction (as a rule, the ratio of treated to control signal) at 1 µM in data set [1] came to 9.
Take `Oc1ccc(-c2cc3cc(O)ccc3o2)c(-c2ccc(OCCN3CCCC3)cc2)c1` (as salt: hydrochloride) [Example 108, 2-[5-Hydroxy-4′-(2-pyrrolidin-1-yl-ethoxy)-biphenyl-2-yl]-benzofuran-5-ol]: the melting point fell in the range of 266 to 269 °C.
Same read-out and setting: next, `COC(=O)CCc1cc(O)cc2cc(-c3ccc(O)cc3)oc12` [Example 60, 3-[5-Hydroxy-2-(4-hydroxy-phenyl)-benzofuran-7-yl]-propionic acid methyl ester]: 167 to 170 °C.
Turning to `Oc1ccc(-c2cc(O)ccc2-c2cc3cc(O)ccc3o2)cc1` [Example 105, 6-(5-Hydroxy-benzofuran-2-yl)-biphenyl-3,4′-diol], the melting point fell in the range of 238 to 239 °C.

Source of the values: patent US7022733B2, “Substituted 2-phenyl benzofurans as estrogenic agents” (Wyeth, priority 2001, dated 2006).
